Assays:
HCC70 cells = test: Inhibition of cell proliferation, CellTiter-Glo, HCC70; type: cell-based; details: Homo sapiens, HCC70, 72 h, Efficacy Example 2 (Table 2), 72 h incubation
Method: (§1) The compounds were each prepared with 100% DMSO into 10 mM mother liquor.
(§2) HCC70 cells and OVCAR3 cells were digested and counted. Cells were diluted to an appropriate concentration according to cell density. 100 μL of cells were added to each well of a 96-well plate. Medium wells served as blank control (Min). The cells were incubated overnight in an incubator at 37° C./5% CO2.
(§3) A 200-fold stock solution of a compound was prepared with DMSO, and the compound was diluted with growth medium to a 3-fold stock solution, i.e., […] of each of 200-fold stock solutions of compound at different concentrations was added to 197 μL of medium. 50 μL of diluted compound was added to each well and the mixture was incubated at 37° C./5% CO2 for 72 h.
(§4) The 96-well plate was equilibrated to room temperature before detection. 40 μL of CellTiter-Glo solution was added to each well. The mixture was mixed for 2 min using a horizontal shaker to induce cell lysis. The mixture was incubated at room temperature for 60 min to stabilize […] signals. Fluorescence values were read on ENVISION.
(§5) (1) Data was analyzed by GraphPad Prism 5
(§6) (2) % inhibition rate=(maximum signal−compound signal)/(maximum signal−minimum signal)×100
(§7) (3) Maximum signal: signal of DMSO well
(§8) (4) Minimum signal: signal of medium well
(§9) The effect of SZ-015200, SZ-015256 and SZ-015268 on cell proliferation after incubation with HCC70, OVCAR-3, HCT116 and HCC1806 cells for 3 days was detected according to the method described in Efficacy Example 2, and the results are shown in Table 3.

OVCAR3 cells = test: Inhibition of cell proliferation, CellTiter-Glo, OVCAR3; type: cell-based; details: Homo sapiens, OVCAR-3, 72 h, Efficacy Example 2 (Table 2), 72 h incubation
Method: as §1, §2, §3, §4, §5, §6, §7, §8, §9

Row | SMILES | IC50 (HCC70 cells) [nM] | IC50 (OVCAR3 cells) [nM]
1 | CC(C)Nc1nc(NC2CCN(C(=O)O[C@H]3CCN(C(=O)/C=C/CN(C)C)C3)CC2)n2ncc(C(C)C)c2n1 [SZ-015330, (S,E)-1-(4-(dimethylamino)but-2-enoyl)pyrrolidin-3-yl 4-((8-isopropyl-2-(isopropylamino)pyrazolo[1,5-a][1,3,5]triazin-4-yl)amino)piperidine-1-carboxylate] | 61 | 44
2 | CC(C)n1cnc2c(NC3CCN(C(=O)O[C@H]4CCN(C(=O)/C=C/CN(C)C)C4)CC3)nc(CO)nc21 [SZ-015297, (S,E)-1-(4-(dimethylamino)but-2-enoyl)pyrrolidin-3-yl-4-((2-(hydroxymethyl)-9-isopropyl-9H-purin-6-yl)amino)piperidine-1-carboxylate] | 252 | 168
3 | CC[C@H](CO)Nc1cc(NC2CCN(C(=O)O[C@H]3CCN(C(=O)/C=C/CN(C)C)C3)CC2)c2ncn(C(C)C)c2n1 [SZ-015306, (S)-1-((E)-4-(dimethylamino)but-2-enoyl)pyrrolidin-3-yl 4-((5-(((R)-1-hydroxybutan-2-yl)amino)-3-isopropyl-3H-imidazo[4,5-b]pyridin-7-yl)amino)piperidine-1-carboxylate] | 205 | 281
4 | CC(C)n1cnc2c(NC3CCN(C(=O)O[C@H]4CCN(C(=O)/C=C/CN(C)C)C4)CC3)nc(-c3cn[nH]c3)nc21 [SZ-015298, (S,E)-1-(4-(dimethylamino)but-2-enoyl)pyrrolidin-3-yl 4-((9-isopropyl-2-(1H-pyrazol-4-yl)-9H-purin-6-yl)amino)piperidine-1-carboxylate] | 405 | –
5 | CC(C)c1nc(NC2CCN(C(=O)O[C@H]3CCN(C(=O)/C=C/CN(C)C)C3)CC2)c2ncc(C(C)C)n2n1 [SZ-015339, (S,E)-1-(4-(dimethylamino)but-2-enoyl)pyrrolidin-3-yl 4-((2,7-diisopropylimidazo[2,1-f][1,2,4]triazin-4-yl)amino)piperidine-1-carboxylate] | 54.7 | 64.3
6 | CC(C)Nc1nc(NC2CCN(C(=O)O[C@H]3CCN(C(=O)/C=C/CN(C)C)C3)CC2)c2ncc(C(C)C)n2n1 [SZ-015328, (S,E)-1-(4-(dimethylamino)but-2-enoyl)pyrrolidin-3-yl 4-((7-isopropyl-2-(isopropylamino)imidazo[2,1-f][1,2,4]triazin-4-yl)amino)piperidine-1-carboxylate] | 252 | 110
7 | CC#CC(=O)N1CC[C@H](OC(=O)N2CCC(Nc3cc(C)nc4c3ncn4C(C)C)CC2)C1 [SZ-015289, (S)-1-(but-2-ynoyl)tetrahydropyrrol-3-yl 4-((3-isopropyl-5-methyl-3H-imidazo[4,5-b]pyridin-7-yl)amino)piperidine-1-carboxylate] | 117 | –
8 | Cc1cc(NC2CCN(C(=O)OC3CN(C(=O)/C=C/CN(C)C)C3)CC2)c2ncn(C(C)C)c2n1 [SZ-015307, (E)-1-(4-(dimethylamino)but-2-enoyl)azetidin-3-yl 4-((3-isopropyl-5-methyl-3H-imidazo[4,5-b]pyridin-7-yl)amino)piperidine-1-carboxylate] | 78 | 139
9 | Cc1nc(NC2CCN(C(=O)O[C@H]3CCN(C(=O)/C=C/CN(C)C)C3)CC2)c2ncn(C(C)C)c2n1 [SZ-015264, (S,E)-1-(4-(dimethylamino)but-2-enoyl)pyrrolidin-3-yl 4-((9-isopropyl-2-methyl-9H-purin-6-yl)amino)piperidine-1-carboxylate] | 181 | 234
10 | CCn1cnc2c(NC3CCN(C(=O)O[C@H]4CCN(C(=O)/C=C/CN(C)C)C4)CC3)ccnc21 [SZ-015285, (S,E)-1-(4-(dimethylamino)but-2-enoyl)pyrrolidin-3-yl 4-((3-ethyl-3H-imidazo[4,5-b]pyridin-7-yl)amino)piperidine-1-carboxylate] | 1050 | 620
11 | CC(C)n1cnc2c(NC3CCN(C(=O)O[C@H]4CCN(C(=O)/C=C/CN(C)C)C4)CC3)ccnc21 [SZ-015286, (S,E)-1-(4-(dimethylamino)but-2-enoyl)pyrrolidin-3-yl 4-((3-isopropyl-3H-imidazo[4,5-b]pyridin-7-yl)amino)piperidine-1-carboxylate] | 570 | 167
12 | CC#CC(=O)N1CC[C@H](OC(=O)N2CCC(Nc3nc(C)nc4c(C(C)C)cnn34)CC2)C1 [SZ-015294, (S)-1-(but-2-ynoyl)pyrrolidin-3-yl 4-((8-isopropyl-2-methylpyrazolo[1,5-a][1,3,5]triazin-4-yl)amino)piperidine-1-carboxylate] | 50.2 | 72.1
13 | CC(C)c1cn2c(C(C)C)cnc2c(NC2CCN(C(=O)O[C@H]3CCN(C(=O)/C=C/CN(C)C)C3)CC2)n1 [SZ-015342, (S,E)-1-(4-(dimethylamino)but-2-enoyl)pyrrolidin-3-yl 4-((3,6-diisopropylimidazo[1,2-a]pyrazin-8-yl)amino)piperidine-1-carboxylate] | 419 | 204
14 | CC(C)Oc1nc(NC2CCN(C(=O)O[C@H]3CCN(C(=O)/C=C/CN(C)C)C3)CC2)n2ncc(C(C)C)c2n1 [SZ-015332, (S,E)-1-(4-(dimethylamino)but-2-enoyl)pyrrolidin-3-yl 4-((2-isopropoxy-8-isopropylpyrazolo[1,5-a][1,3,5]triazin-4-yl)amino)piperidine-1-carboxylate] | 51.5 | 44.7
15 | CC(C)Oc1nc(NC2CCN(C(=O)O[C@H]3CCN(C(=O)/C=C/CN(C)C)C3)CC2)c2ncc(C(C)C)n2n1 [SZ-015346, (S,E)-1-(4-(dimethylamino)but-2-enoyl)pyrrolidin-3-yl 4-((2-isopropoxy-7-isopropylimidazo[2,1-f][1,2,4]triazin-4-yl)amino)piperidine-1-carboxylate] | 140 | 48.8
16 | CC[C@H](CO)Nc1nc(NC2CCN(C(=O)O[C@H]3CCN(C(=O)/C=C/CN(C)C)C3)CC2)n2ncc(C(C)C)c2n1 [SZ-015326, (S)-1-((E)-4-(dimethylamino)but-2-enoyl)pyrrolidin-3-yl 4-((2-(((R)-1-hydroxybutan-2-yl)amino)-8-isopropylpyrazolo[1,5-a][1,3,5]triazin-4-yl)amino)piperidine-1-carboxylate] | 50.3 | 33.2
17 | CC(C)Nc1cc(NC2CCN(C(=O)O[C@H]3CCN(C(=O)/C=C/CN(C)C)C3)CC2)c2ncn(C(C)C)c2n1 [SZ-015303, (S,E)-1-(4-(dimethylamino)but-2-enoyl)pyrrolidin-3-yl 4-((3-isopropyl-5-(isopropylamino)-3H-imidazo[4,5-b]pyridin-7-yl)amino)piperidine-1-carboxylate] | 129 | 114
18 | CC[C@H](CO)Nc1cc(NC2CCN(C(=O)O[C@H]3CCN(C(=O)/C=C/CN(C)C)C3)CC2)c2ncc(C(C)C)n2n1 [SZ-015317, (S)-1-((E)-4-(dimethylamino)but-2-enoyl)pyrrolidin-3-yl 4-((6-(((R)-1-hydroxybutan-2-yl)amino)-3-isopropylimidazo[1,2-b]pyridazin-8-yl)amino) piperidine-1-carboxylate] | 237 | 429
19 | CC[C@H](CO)Nc1nc(NC2CCN(C(=O)O[C@H]3CCN(C(=O)/C=C/CN(C)C)C3)CC2)c2ncn(C(C)C)c2n1 [SZ-015295, (S)-1-((E)-4-(dimethylamino)but-2-enoyl)pyrrolidin-3-yl 4-((2-(((R)-1-hydroxybutan-2-yl)amino)-9-isopropyl-9H-purin-6-yl)amino)piperidine-1-carboxylate] | 110 | 62.8
20 | Cc1nc(NC2CCN(C(=O)O[C@@H]3CCN(C(=O)/C=C/CN(C)C)C3)CC2)n2ncc(C(C)C)c2n1 [SZ-015282, (R,E)-1-(4-(dimethylamino)but-2-enoyl)pyrrolidin-3-yl 4-((8-isopropyl-2-methylpyrazolo[1,5-a][1,3,5]triazin-4-yl)amino)piperidine-1-carboxylate] | 82.4 | 92.1
21 | CC(C)c1cnc2c(NC3CCN(C(=O)O[C@H]4CCN(C(=O)/C=C/CN(C)C)C4)CC3)nc(C3CC3)nn12 [SZ-015338, (S,E)-1-(4-(dimethylamino)but-2-enoyl)pyrrolidin-3-yl 4-((2-cyclopropyl-7-isopropylimidazo[2,1-f][1,2,4]triazin-4-yl)amino)piperidine-1-carboxylate] | 48.7 | 29.7
22 | CC#CC(=O)N1CC[C@@H](OC(=O)N2CCC(Nc3cc(C)nc4c3ncn4C(C)C)CC2)C1 [SZ-015284, (R)-1-(but-2-ynoyl)tetrahydropyrrol-3-yl 4-((3-isopropyl-5-methyl-3H-imidazo[4,5-b]pyridin-7-yl)amino)piperidine-1-carboxylate] | 97.4 | –
23 | Cc1nc(NC2CCN(C(=O)OC3CN(C(=O)/C=C/CN(C)C)C3)CC2)c2ncn(C(C)C)c2n1 [SZ-015308, (E)-1-(4-(dimethylamino)but-2-enoyl)azetidin-3-yl 4-((9-isopropyl-2-methyl-9H-purin-6-yl)amino)piperidine-1-carboxylate] | 92.1 | –

Reference: patent US20230115907A1, “HETEROCYCLIC COMPOUND AND PHARMACEUTICAL COMPOSITION, PREPARATION METHOD, INTERMEDIATE AND USE THEREOF” (EVOPOINT BIOSCIENCES CO., LTD., priority 2019, published 2023)
